{"source": "patent US20250340519A1", "about": "“RADIOLABELLED COMPOUND” (OXFORD UNIVERSITY INNOVATION LIMITED, priority 2018, published 2025)", "key": {"U87MG and U251MG cells": {"tested_on": "U87MG and U251MG cells", "assay": "Blocking of 18F-olaparib uptake in U87MG and U251MG cells", "assay_type": "cell-based", "details": "100 μM cold olaparib vs 1 μM ^18F-olaparib", "protocol": "Olaparib (1) was used at various concentrations to block 1 μM of the radiolabelled isotopologue, ^18F-olparib (compound 3); see FIG. 26."}, "[1]": {"tested_on": "U87MG and U251MG xenografts", "assay": "18F-olaparib biodistribution in U87MG and U251MG tumour xenograft mouse models", "assay_type": "in vivo, Balb/c nude mice", "details": "20 μg cold olaparib prior to 1 μg ^18F-olaparib, tail vein", "protocol": "U87MG and U251MG xenografts were generated in Balb/c nude mice. The xenograft models were administered various doses (0.5, 1.0, 4.0, and 8.0 μg) of ^18F-olaparib by tail vein injection. At 60-120 min post-injection, mice were sacrificed and organs were collected for biodistribution; see FIGS. 27(a) and (b), and FIG. 28(a). […] We predicted that the uptake for the U251MG xenografts would be greater, but in vivo there is no significant difference between the % ID/g for the U251MG or U87MG xenograft tumours.\nA 20-fold excess of cold olaparib was injected via tail vein 60 m prior to 1 μg of ^18F-olaparib via tail vein. The mice were sacrificed at 60-120 min post-injection and organs were harvested."}, "PANC-1 cells": {"tested_on": "PANC-1 cells", "assay": "Cell uptake of [18F]olaparib in PANC-1 cells", "assay_type": "cell-based, human", "details": "excess of unlabelled inhibitor", "protocol": "PARP1 levels in a limited selection of PDAC cell lines were determined using Western blot and confirmed by immunofluorescence microscopy. […] Uptake was reported as a percentage of the total amount added, per mg of total protein recovered from the isolated cells, determined by BCA assay. Specificity of uptake was determined by blocking olaparib binding sites using an excess of cold, unlabeled olaparib, or other PARP inhibitors (rucaparib, talazoparib).\nCell uptake of ^18F-olaparib in Panc-1, MiaPaCa-2 and Capan-1 cells was determined as previously described (Cornelissen, B., Hu, M., McLarty, K., Costantini, D. & Reilly, R. M.\nCellular penetration and nuclear importation properties of 111In-labeled and 123I-labeled HIV-1 tat peptide immunoconjugates in BT-474 human breast cancer cells. Nucl Med Biol 34, 37-46, 2007; Thurber, G. M., Reiner, T., Yang, K. S., Kohler, R. H. & Weissleder, R. Effect of small-molecule modification on single-cell pharmacokinetics of PARP inhibitors. Molecular cancer therapeutics 13, 986-995, 2014; Reiner, T., et al. Imaging therapeutic PARP inhibition in vivo through bioorthogonally developed companion imaging agents. Neoplasia 14, 169-177, 2012). Aliquots of Panc-1, MiaPaca-2, and Capan-1 cells (1.5×10^5 cells/well) were seeded in 24-well plates in warm cell culture medium (500 μL) and the cells were allowed to adhere overnight. Cells were irradiated (10 Gy; dose rate 0.8 Gy/min) or sham-irradiated and then returned to an incubator (37° C., 5% CO2) for 2 h. […] In the blocking groups, non-radioactive olaparib, talazoparib, or rucaparib were also added in increasing concentrations (10 pM-10 μM. After 30 or 60 minutes, the cell culture medium was removed and combined with two washes (500 μL) of cell culture medium. The remaining monolayer of cells was then lysed with 0.1 M sodium hydroxide for 20 minutes at room temperature. The amount of radioactivity contained within the cell culture medium and the cell lysate fractions was measured using a gamma counter. Protein levels from parallel plates were quantified using a Pierce BCA protein assay kit (Thermo Scientific) according to the manufacturer's recommendations and bovine serum albumin was used as the protein standard. Cell uptake levels of [^18F]-olaparib were normalised to percent of the total added radioactivity per milligram protein. […] IC50 values were calculated using GraphPad Prism software (GraphPad Software, San Diego, CA, USA). […]\nAliquots of Panc-1, MiaPaca-2, and Capan-1 cells (7.5×10^4 cells/well) were seeded in 24-well plates in warm cell culture medium (500 μL). […] The amount of radioactivity contained within the cell culture medium and the cell lysate fractions was measured using a gamma counter. […]"}, "[2]": {"details": "female mice, intravenous bolus 20 mg/kg; cited from earlier work"}}}
{"compound": "O=C(c1cc(Cc2n[nH]c(=O)c3ccccc23)ccc1F)N1CCN(C(=O)C2CC2)CC1", "note": "[Compound 1, 4-(3-(4-(cyclopropanecabonyl)piperazine-1-carbnonyl)-4-fluorobenzyl)phthalazin-1(2H)-one]", "values": [{"measurement": "blocking of ^18F-olaparib uptake in vitro", "setting": "U87MG and U251MG cells", "value": "~70", "unit": "%"}, {"measurement": "blocking of ^18F-olaparib tumour uptake in vivo", "setting": "[1]", "value": "~75", "unit": "%"}, {"measurement": "blocking of [^18F]olaparib uptake by excess PARP inhibitor", "setting": "PANC-1 cells", "value": "could be blocked"}, {"measurement": "previously reported half-life", "setting": "[2]", "value": 58, "unit": "min"}]}
{"compound": "CNCc1ccc(-c2[nH]c3cc(F)cc4c3c2CCNC4=O)cc1", "note": "[rucaparib]", "values": [{"measurement": "blocking of [^18F]olaparib uptake by excess PARP inhibitor", "setting": "PANC-1 cells", "value": "could be blocked"}]}
{"compound": "Cn1ncnc1[C@H]1c2n[nH]c(=O)c3cc(F)cc(c23)N[C@@H]1c1ccc(F)cc1", "note": "[talazoparib]", "values": [{"measurement": "blocking of [^18F]olaparib uptake by excess PARP inhibitor", "setting": "PANC-1 cells", "value": "could be blocked"}]}
